Results published in patent publication US8921124B2, “Pyrazole-based cyanine dye” (Wako Pure Chemical Industries, Ltd., priority 2006, dated 2014).

Tests used:
[1] = Fluorescence characteristics (max. absorption, excitation and fluorescence wavelengths, molar absorption coefficient); assay type: physicochemical
Method: Fluorescence characteristics are shown below.
(§1) Into 1 mL of purified water, Cy5 for labeling 1 mg of protein (manufactured by GE Healthcare Bioscience Biohealth Co., Ltd.), was dissolved. This solution was diluted 200 times with a 50 mM phosphoric acid buffer solution (pH 7.5) to measure OD value (0.1020).
(§2) Concentration of a Cy5 solution was determined from this OD value and molar absorption coefficient (ε=250,000), [described in a general product catalogue 2006 “7-4” of GE Healthcare Bioscience Co., Ltd.]), (0.408 μM). Then fluorescence was measured using the present solution.

[2] = Relative fluorescence intensity, roughly calculated relative to Cy5 per 1 μM as 100; assay type: physicochemical
Method: Relative fluorescence intensity of a compound of the present invention was roughly calculated relative to fluorescence intensity of Cy5, which is a conventional cyanine dye.
First, fluorescence intensity of Cy5 per 1 μM was measured from fluorescence intensity of Cy5, and relative fluorescence intensity of the compound of the present invention was roughly calculated relative to this fluorescence intensity value as 100.
as §1, §2
Relative fluorescence intensities of the compounds (13), (21), (32) and (38) of the present invention were roughly estimated relative to fluorescence intensity of Cy5 per 1 μM, obtained in Example 8, (1), as 100.
Relative fluorescence intensity of a compound of the present invention was roughly calculated based on fluorescence intensity of Cy5, which is a conventional cyanine dye derivative.
First, fluorescence intensity of Cy5 per 1 μM was measured from fluorescence intensity of Cy5, and relative fluorescence intensity of the compound of the present invention was roughly calculated based on this fluorescence intensity value as 100.
Into 1 mL of purified water, Cy5 (manufactured by GE Healthcare Bioscience Biohealth Co., Ltd.) for labeling 1 mg of protein, was dissolved. This solution was diluted 200 times with a 50 mM phosphoric acid buffer solution (pH 7.5) to measure OD value (0.1020).
Concentration of a Cy5 solution was determined from this OD value and molar absorption coefficient (E=250,000, [described in a general product catalogue 2006 “7-4” of GE Healthcare Bioscience Co., Ltd.]), (0.408 μM).
Then fluorescence of Cy5 was measured using the present solution.
Relative fluorescence intensity of the compound (40) of the present invention, obtained in Example 11 and the compound (43) of the present invention, obtained in Example 12 were roughly calculated, relative to fluorescence intensity per 1 μM of Cy5, obtained in Example 14, (1), as 100.

[3] = described in general product catalogue 2006 of GE Healthcare Bioscience; in M-1cm-1; cited from earlier work
[4] = 0.408 μM solution in 50 mM phosphoric acid buffer solution (pH 7.5)
[5] = Cy5 solution 0.408 μM in 50 mM phosphoric acid buffer solution (pH 7.5)

Max. excitation wavelength [Ex(max)] [1, 4]: 649 nm
Max. fluorescence wavelength [Em(max)] [1, 4]: 670 nm
Max. excitation wavelength [Ex(max)] [1, 5]: 649 nm
Max. fluorescence wavelength [Em(max)] [1, 5]: 670 nm
Fluorescence intensity [2, 5]: 3,161
Fluorescence intensity of Cy5/1 μM ([2]; per 1 μM, from intensity at 0.408 μM): 7,747
Fluorescence intensity of Cy5/1 μM ([2]; per 1 μM, from the intensity of the 0.408 μM solution): 7,747
Relative fluorescence intensity [relative to fluorescence intensity of Cy5 (1 μM) as 100] ([2]; roughly calculated, Cy5 per 1 μM = 100): 100
Relative fluorescence intensity [relative to fluorescence intensity of Cy5 (1 μM) as 100] ([2]; roughly calculated; Cy5 per 1 μM = 100): 100
Structure (SMILES): CCN1/C(=C/C=C/C=C/C2=[N+](CCCCCC(=O)O)c3ccc(S(=O)(=O)O)cc3C2(C)C)C(C)(C)c2cc(S(=O)(=O)[O-])ccc21 [Cy5]
molar absorption coefficient (ε) [3]: 250,000
